Reference: ChEMBL document CHEMBL4350952, “Evolution of PI3Kγ and δ Inhibitors for Inflammatory and Autoimmune Diseases” (J Med Chem, 2019)
pIC50: −log10 of the molar value. One block for each molecule: values may come before it.

Key:
[1] = target: T1, Phosphatidylinositol 4,5-bisphosphate 3-kinase catalytic subunit delta isoform (Homo sapiens, UniProt O00329); experiment: Inhibition of PI3Kdelta (unknown origin)
T1 sequence (O00329 whole entry): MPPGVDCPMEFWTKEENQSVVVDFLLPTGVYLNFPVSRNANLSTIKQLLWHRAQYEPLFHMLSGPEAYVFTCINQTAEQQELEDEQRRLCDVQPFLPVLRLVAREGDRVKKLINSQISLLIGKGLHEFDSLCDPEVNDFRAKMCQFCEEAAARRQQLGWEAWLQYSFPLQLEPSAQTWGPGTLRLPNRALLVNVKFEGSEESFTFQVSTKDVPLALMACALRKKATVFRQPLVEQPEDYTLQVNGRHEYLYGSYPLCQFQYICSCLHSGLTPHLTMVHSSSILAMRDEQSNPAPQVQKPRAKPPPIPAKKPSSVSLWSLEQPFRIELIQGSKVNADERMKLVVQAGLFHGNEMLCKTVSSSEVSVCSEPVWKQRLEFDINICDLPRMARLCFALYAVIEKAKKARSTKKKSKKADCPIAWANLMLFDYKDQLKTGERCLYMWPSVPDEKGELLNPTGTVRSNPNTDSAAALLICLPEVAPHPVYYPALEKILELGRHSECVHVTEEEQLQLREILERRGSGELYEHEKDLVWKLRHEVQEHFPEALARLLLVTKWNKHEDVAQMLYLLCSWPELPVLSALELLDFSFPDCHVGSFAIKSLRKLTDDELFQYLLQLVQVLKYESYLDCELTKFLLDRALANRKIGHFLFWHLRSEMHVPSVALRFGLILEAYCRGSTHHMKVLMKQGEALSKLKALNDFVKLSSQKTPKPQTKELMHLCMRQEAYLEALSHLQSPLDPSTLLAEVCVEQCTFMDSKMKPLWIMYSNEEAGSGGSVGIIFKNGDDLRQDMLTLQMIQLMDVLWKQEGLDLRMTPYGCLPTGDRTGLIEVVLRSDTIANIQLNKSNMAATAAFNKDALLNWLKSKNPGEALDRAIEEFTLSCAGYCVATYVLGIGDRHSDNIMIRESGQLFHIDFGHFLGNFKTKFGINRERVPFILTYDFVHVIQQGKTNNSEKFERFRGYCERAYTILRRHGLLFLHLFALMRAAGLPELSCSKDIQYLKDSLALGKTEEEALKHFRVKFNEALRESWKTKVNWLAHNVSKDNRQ

[2] = target: T1, Phosphatidylinositol 4,5-bisphosphate 3-kinase catalytic subunit delta isoform
Description: Inhibition of PI3Kdelta (unknown origin) preincubated for 30 mins followed by insulin stimulation for 5 mins by Western blot analysis

[3] = target: T2, PI3-kinase p110-delta/p85-alpha (Homo sapiens, UniProt O00329); experiment: Inhibition of N-terminal His6-tagged recombinant full length human p110delta/untagged recombinant full length human p85alpha expressed in baculovirus infected Sf21 insect cells after 60 mins by ADP-Glo assay
[4] = target: T2, PI3-kinase p110-delta/p85-alpha; experiment: Inhibition of N-terminal His6-tagged recombinant full length human p110delta/untagged recombinant full length human p85alpha expressed in baculovirus infected Sf21 insect cells using PIP2 as substrate after 60 mins by HTRF assay
[5] = tested on: SU-DHL-6; experiment: Cytotoxicity against human SU-DHL6 cells; format: functional, cell-based
[6] = Cytotoxicity against human basophil cells after 24 hrs by MTT assay; format: cell-based
[7] = target: T3, Phosphatidylinositol 4,5-bisphosphate 3-kinase catalytic subunit gamma isoform (Homo sapiens, UniProt P48736); experiment: Inhibition of GST-tagged PI3Kgamma (unknown origin) using PIP2 as substrate preincubated for 2 hrs followed by ATP addition measured after 30 mins by TR-FRET assay
[8] = target: T1, Phosphatidylinositol 4,5-bisphosphate 3-kinase catalytic subunit delta isoform; experiment: Inhibition of PI3Kdelta in human Pfeiffer cells; format: cell-based
[9] = tested on: Pfeiffer; experiment: Cytotoxicity against human Pfeiffer cells; format: functional, cell-based
[10] = target: T3, Phosphatidylinositol 4,5-bisphosphate 3-kinase catalytic subunit gamma isoform; experiment: Inhibition of PI3Kgamma (unknown origin)
[11] = tested on: JeKo-1; experiment: Cytotoxicity against human JeKo1 cells; format: functional, cell-based
[12] = tested on: Raji; experiment: Cytotoxicity against in human Raji cells; format: functional, cell-based
[13] = Cytotoxicity against basophil derived from B-cell malignant patient by cell-titer aqueous one solution cell proliferation assay; format: functional; details: Homo sapiens
[14] = species on record: Homo sapiens; experiment: Selectivity ratio of IC50 for N-terminal His6-tagged recombiant human full length p120gamma IC50 for N-terminal His6-tagged recombinant full length human p110delta/untagged recombinant full length human p85alpha

T2 sequence (P27986 whole entry, one chain of several): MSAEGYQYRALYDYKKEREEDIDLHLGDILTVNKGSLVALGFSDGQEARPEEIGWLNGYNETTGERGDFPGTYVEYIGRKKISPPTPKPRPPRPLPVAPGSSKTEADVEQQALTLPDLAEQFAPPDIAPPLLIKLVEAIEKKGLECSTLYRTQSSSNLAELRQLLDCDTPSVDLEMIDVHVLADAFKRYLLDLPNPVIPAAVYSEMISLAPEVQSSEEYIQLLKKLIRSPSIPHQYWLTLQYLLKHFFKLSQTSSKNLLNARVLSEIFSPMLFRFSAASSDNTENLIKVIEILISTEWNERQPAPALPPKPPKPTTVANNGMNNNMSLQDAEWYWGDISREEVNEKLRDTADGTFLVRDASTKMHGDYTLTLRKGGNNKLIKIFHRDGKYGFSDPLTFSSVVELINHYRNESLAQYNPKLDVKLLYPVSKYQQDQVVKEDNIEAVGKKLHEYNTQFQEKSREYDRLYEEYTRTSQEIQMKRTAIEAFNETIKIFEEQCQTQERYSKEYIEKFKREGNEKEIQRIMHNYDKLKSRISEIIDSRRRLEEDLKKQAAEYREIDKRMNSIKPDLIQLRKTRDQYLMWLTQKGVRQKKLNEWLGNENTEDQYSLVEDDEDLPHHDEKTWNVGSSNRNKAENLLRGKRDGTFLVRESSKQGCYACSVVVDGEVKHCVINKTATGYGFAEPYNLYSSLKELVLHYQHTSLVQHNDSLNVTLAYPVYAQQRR
T3 sequence (P48736 whole entry, canonical isoform): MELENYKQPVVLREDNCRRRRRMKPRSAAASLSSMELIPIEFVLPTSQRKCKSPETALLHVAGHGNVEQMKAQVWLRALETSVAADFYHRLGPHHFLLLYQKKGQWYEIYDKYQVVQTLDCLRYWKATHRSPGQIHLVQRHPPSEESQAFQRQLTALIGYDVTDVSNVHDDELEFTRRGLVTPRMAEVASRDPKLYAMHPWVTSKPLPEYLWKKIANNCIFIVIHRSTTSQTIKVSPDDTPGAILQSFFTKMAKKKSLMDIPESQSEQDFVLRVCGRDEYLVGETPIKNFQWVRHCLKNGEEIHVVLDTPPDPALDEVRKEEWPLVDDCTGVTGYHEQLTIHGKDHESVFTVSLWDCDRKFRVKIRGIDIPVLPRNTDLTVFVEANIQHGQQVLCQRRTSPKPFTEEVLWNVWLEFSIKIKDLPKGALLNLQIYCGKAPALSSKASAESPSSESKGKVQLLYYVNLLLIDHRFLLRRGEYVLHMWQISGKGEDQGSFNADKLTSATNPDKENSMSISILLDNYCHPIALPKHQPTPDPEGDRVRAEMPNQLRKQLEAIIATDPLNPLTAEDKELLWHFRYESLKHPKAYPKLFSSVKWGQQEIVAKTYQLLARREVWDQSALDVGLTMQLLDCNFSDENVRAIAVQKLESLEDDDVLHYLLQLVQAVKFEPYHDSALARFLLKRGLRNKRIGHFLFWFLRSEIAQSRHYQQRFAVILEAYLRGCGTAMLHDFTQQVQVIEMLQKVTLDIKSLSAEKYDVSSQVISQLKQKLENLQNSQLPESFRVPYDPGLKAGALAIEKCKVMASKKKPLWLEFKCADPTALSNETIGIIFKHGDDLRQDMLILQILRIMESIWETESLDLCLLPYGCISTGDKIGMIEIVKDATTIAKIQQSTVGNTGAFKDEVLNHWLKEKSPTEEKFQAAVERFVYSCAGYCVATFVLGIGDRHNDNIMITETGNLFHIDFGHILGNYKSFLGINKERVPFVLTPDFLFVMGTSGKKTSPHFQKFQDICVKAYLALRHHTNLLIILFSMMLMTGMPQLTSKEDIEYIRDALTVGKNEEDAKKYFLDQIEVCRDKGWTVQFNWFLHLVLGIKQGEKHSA

pIC50 [1]: 8.00 to 10.00
SMILES: CC(Nc1ncnc2[nH]cnc12)c1cc2ccccn2c(=O)c1-c1ccccc1 (stereo unspecified)

pIC50 [2]: 9.70
SMILES: C[C@H](Nc1ncnc(N)c1-c1nnn[nH]1)c1nn2cccc2c(=O)n1-c1ccccc1

pIC50 [3]: > 6.00
SMILES: Cc1nn(C)c(-c2ccccc2)c1Cn1nc(-c2cc(O)cc(F)c2)c2c(N)ncnc21

pIC50 [2]: 8.70
SMILES: CC[C@H](Nc1ncnc(N)c1-c1nnc(C)o1)c1nc2cccc(Cl)c2c(=O)n1-c1ccccc1

pIC50 [8]: > 7.30
SMILES: Cc1c(Cl)cc(C(C)Nc2ncnc3nc[nH]c23)c(-c2cccc(F)c2)c1C(N)=O (stereo unspecified)
pIC50 [9]: > 7.30

pIC50 [10]: < 6.00
SMILES: CC(c1oc(=O)c2ccccc2c1C1=CCN(C)CC1)n1nc(-c2cc(O)cc(F)c2)c2c(N)ncnc21 (stereo unspecified)

pIC50 [2]: 10.40
SMILES: Cc1cccc2nc([C@H](C)Nc3ncnc4[nH]cc(-c5cccc(NS(C)(=O)=O)c5)c34)n(-c3ccccc3)c(=O)c12

More lines, now with the values behind:

SMILES: CCC(=O)N1CC[C@H](Oc2ncnc3c2nc(-c2cnn(CC)c2C)n3C)C1
pIC50 [4]: > 9.00

SMILES: Cc1csc2cc(C(C)Nc3ncnc4[nH]cnc34)c(-c3ccccc3)c(=O)n12 (stereo unspecified)
pIC50 [5]: 7.44

SMILES: Cc1ncc(-c2nc3c(-c4ccc5c(c4)C4(CCCN4S(C)(=O)=O)C(=O)N5)ncnc3n2C)cn1 (stereo unspecified)
pIC50 [4]: 9.15

SMILES: C[C@H](Nc1ncnc2[nH]cnc12)c1nc2ccc(F)cc2c(=O)n1-c1ccccc1 [ACALISIB]
pIC50 [6]: 7.72
pIC50 [7]: 5.52

SMILES: Cc1nc(N)nc(N[C@@H](C)c2nc3ccn(C)c3cc2N2CCNCC2)c1C#N
pIC50 [1]: 9.15

SMILES: CC[C@H](Nc1ncnc2c1nc(-c1cnn(CC)c1C)n2C)C(=O)N1CCC(F)(F)CC1
pIC50 [4]: 8.55

SMILES: Cn1nc(-c2cnc(N)c(-c3ccc(C(N)=O)c(F)c3)n2)nc1C1(c2ccccc2)CC1
pIC50 [11]: 6.92

SMILES: C[C@H](Nc1ncnc2nc[nH]c12)c1cc2cccc(Cl)c2c(=O)n1-c1ccccc1 [DUVELISIB]
pIC50 [12]: 9.44

SMILES: COc1ccc(-c2nc3c(O[C@H]4CCN(C(=O)C5CCOCC5)C4)ncnc3n2C)cn1
pIC50 [4]: > 9.00

SMILES: CC[C@H](Nc1ncnc2[nH]cnc12)c1nc2cccc(F)c2c(=O)n1-c1ccccc1 [IDELALISIB]
pIC50 [13]: 6.07

SMILES: Cc1nc(NC(=O)CNC(=O)c2ccccc2)sc1-c1cnc(Cl)c(NS(=O)(=O)c2ccccc2)c1
pIC50 [1]: 9.22
Ratio IC50 [14]: 71
